Test results published in patent US20230416268A1, “PYRIMIDINONE-CONTAINING 17-BETA-HYDROXYSTEROID DEHYDROGENASE TYPE 13 INHIBITORS” (ENANTA PHARMACEUTICALS, INC., priority 2022, published 2023).
Values belong to the compound of their own block, whether it stands above or below them.

Target: Recombinant human 17β-HSD13 (Homo sapiens (Human), UniProt Q7Z5P4)
Assay: 17β-HSD13 rapid-fire mass spectrometry assay (RF/MS assay)
Format: biochemical
Details: HSD17B13 80 nM, LTB4 10 μM, NAD+ 0.5 mM, RT 3 h, RF/MS readout
Method: 17β-HSD13 rapid-fire mass spectrometry assay (RF/MS assay). Recombinant human 17β-HSD13 was expressed and purified from sf9 cells at Charles River Labs (Saffron Walden, UK). […] The assays were quenched by adding 20 μL of 0.15% aqueous formic acid and the plates were frozen at −80° C. RF/MS analysis was performed at PureHoney Technologies (Billerica, MA) on a RapidFire RF300 system (Agilent Technologies, Inc.) coupled to an API 4000 triple quadrupole mass spectrometer (Sciex) equipped with Agilent RapidFire cartridge type A (C4). The mobile phase was 0.09% formic acid and 0.01% trifluoracetic acid in water (Buffer A) and 0.09% formic acid and 0.01% trifluoracetic acid in 80% aqueous acetonitrile (Buffer B). The RapidFire method conditions were the following: 250 ms aspirate, 3000 ms load/desalt, 4000 ms elute, and 500 ms re-equilibrate. RF-MS/MS was performed in negative polarity (−4500 V), the source temperature was 650° C., and gas 1 and gas 2 settings for nitrogen were set to 50. The curtain gas and collision gas were also nitrogen and were set to 20 and 12, respectively.
Data Analysis. 17β-HSD13 enzyme activity was measured as percent conversion of extracted ion counts and normalized to high and low controls to determine percent residual activity at various concentrations of test compounds. Data were fitted to normalized activity (variable slope) versus concentration fit in GraphPad Prism 7 to determine IC50. All experiments were run in duplicates.

Recombinant human 17β-HSD13, sequence (Q7Z5P4 20-300): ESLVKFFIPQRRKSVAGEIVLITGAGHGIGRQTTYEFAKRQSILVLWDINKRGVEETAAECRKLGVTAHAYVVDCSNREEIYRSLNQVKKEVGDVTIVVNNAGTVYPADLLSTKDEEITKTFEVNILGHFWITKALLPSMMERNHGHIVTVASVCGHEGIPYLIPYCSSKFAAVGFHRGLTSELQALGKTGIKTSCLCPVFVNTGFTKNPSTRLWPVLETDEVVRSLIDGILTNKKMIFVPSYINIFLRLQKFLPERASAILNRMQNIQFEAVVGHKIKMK

SMILES: COc1ccc(-c2nc3sc4c(O)cccc4c3c(=O)n2CCNCc2nnnn2C)c(C2CC2)c1 [Example 40]
IC50: < 100 nM

SMILES: COc1ccc(-c2nc3sc4c(O)cccc4c3c(=O)n2CCNCc2cnc(OC)nc2)c(C2CC2)c1 [Example 29]
IC50: < 100 nM

SMILES: O=c1c2c(nc(-c3ccc(F)cc3C3CC3)n1Cc1cnco1)sc1c(O)cccc12 [Example 69]
IC50: < 100 nM

SMILES: COC(=O)NCCn1c(-c2ccc(OC)cc2C2CC2)nc2sc3c(O)cccc3c2c1=O [Example 45]
IC50: 100 to 1000 nM

SMILES: COc1ccc(-c2nc3sc4c(O)cccc4c3c(=O)n2CCN2CCOCC2)c(C2CC2)c1 [Example 17]
IC50: < 100 nM

SMILES: CC(C)Oc1ccc(-c2nc3sc4c(O)cccc4c3c(=O)n2Cc2ccno2)c(C2CC2)c1 [Example 82]
IC50: < 100 nM

SMILES: O=c1c2c(nc(-c3ccc(F)cc3C3CC3)n1CCn1ccc(C3CC3)n1)sc1c(O)cccc12 [Example 72]
IC50: 100 to 1000 nM

SMILES: COc1ccc(-c2nc3sc4c(O)cccc4c3c(=O)n2CCN2CCCCC2)c(C2CC2)c1 [Example 20]
IC50: < 100 nM

SMILES: CC(C)Oc1ccccc1-c1nc2sc3c(O)cccc3c2c(=O)n1Cc1cncs1 [Example 49]
IC50: < 100 nM

SMILES: COc1ccc(-c2nc3sc4c(O)cccc4c3c(=O)n2CCNCc2cn[nH]c2)c(C2CC2)c1 [Example 30]
IC50: < 100 nM

SMILES: O=c1c2c(nc(-c3ccc(F)cc3C3CC3)n1CCn1cnnn1)sc1c(O)cccc12 [Example 81]
IC50: < 100 nM

SMILES: CCOC(=O)C1CC1Cn1c(-c2ccc(OC)cc2C2CC2)nc2sc3c(O)cccc3c2c1=O (centres unmarked) [Example 51]
IC50: < 100 nM

SMILES: COc1ccc(-c2nc3sc4c(O)cccc4c3c(=O)n2C2CC2)c(C2CC2)c1 [Example 54]
IC50: 100 to 1000 nM

SMILES: COc1ccc(-c2nc3sc4c(O)cccc4c3c(=O)n2CCNCc2nnn(C)n2)c(C2CC2)c1 [Example 41]
IC50: < 100 nM

SMILES: COc1ccc(-c2nc3sc4c(OC(=O)C(C)(C)C)cccc4c3c(=O)n2Cc2cnco2)c(C2CC2)c1 [Example 89]
IC50: > 10000 nM

SMILES: O=c1c2c(nc(-c3ccc(F)cc3C3CC3)n1CCn1cnnc1)sc1c(O)cccc12 [Example 78]
IC50: 100 to 1000 nM

SMILES: COc1ccc(-c2nc3sc4c(O)cccc4c3c(=O)n2CCN2CCC(O)CC2)c(C2CC2)c1 [Example 24]
IC50: < 100 nM

SMILES: O=c1c2c(nc(-c3ccc(F)cc3C3CC3)n1CCn1nccn1)sc1c(O)cccc12 [Example 79]
IC50: < 100 nM

SMILES: O=c1c2c(nc(-c3ccc(F)cc3C3CC3)n1Cc1ccno1)sc1c(O)cccc12 [Example 68]
IC50: < 100 nM

SMILES: COc1ccc(-c2nc3sc4c(OC(=O)[C@H](C)N)cccc4c3c(=O)n2Cc2cncs2)c(C2CC2)c1 [Example 33]
IC50: < 100 nM

SMILES: O=c1c2c(nc(-c3ccc(F)cc3C3CC3)n1CCn1ccnn1)sc1c(O)cccc12 [Example 80]
IC50: < 100 nM

SMILES: COc1ccc(-c2nc3sc4c(O)cccc4c3c(=O)n2CCN2CCNCC2)c(C2CC2)c1 [Example 19]
IC50: < 100 nM

SMILES: COc1ccc(-c2nc3sc4c(OC(=O)c5ccccc5)cccc4c3c(=O)n2Cc2cnco2)c(C2CC2)c1 [Example 3, 2-(2-cyclopropyl-4-methoxyphenyl)-3-(oxazol-5-ylmethyl)-4-oxo-3,4-dihydrobenzo[4,5]thieno[2,3-d]pyrimidin-8-yl benzoate]
IC50: 100 to 1000 nM

SMILES: Cc1ncc(Cn2c(-c3ccc(F)cc3C3CC3)nc3sc4c(O)cccc4c3c2=O)o1 [Example 75]
IC50: < 100 nM

SMILES: O=c1c2c(nc(-c3ccc(F)cc3C3CC3)n1Cc1cncs1)sc1c(O)cccc12 [Example 46]
IC50: < 100 nM

SMILES: CCC(=O)Oc1cccc2c1sc1nc(-c3ccc(OC)cc3C3CC3)n(Cc3cnco3)c(=O)c12 [Example 2, 2-(2-cyclopropyl-4-methoxyphenyl)-3-(oxazol-5-ylmethyl)-4-oxo-3,4-dihydrobenzo[4,5]thieno[2,3-d]pyrimidin-8-yl propionate]
IC50: < 100 nM

SMILES: COc1ccc(-c2nc3sc4c(O)ccc(Cl)c4c3c(=O)n2Cc2cnco2)c(C2CC2)c1 [Example 91]
IC50: < 100 nM

SMILES: CC(C)Oc1ccc(-c2nc3sc4c(O)cccc4c3c(=O)n2Cc2cnco2)c(C2CC2)c1 [Example 83]
IC50: < 100 nM

SMILES: O=c1c2c(nc(-c3ccc4c(c3)OCO4)n1Cc1ccccc1)sc1c(O)cccc12 [Example 6]
IC50: > 10000 nM

SMILES: COc1ccc(-c2nc3sc4c(O)cccc4c3c(=O)n2CCOC(=O)N2CCOCC2)c(C2CC2)c1 [Example 35]
IC50: < 100 nM

SMILES: O=c1c2c(nc(-c3ccc(F)cc3C3CC3)n1Cc1cnoc1)sc1c(O)cccc12 [Example 70]
IC50: < 100 nM

SMILES: CC(C)(C)c1ccc(-c2nc3sc4c(O)cccc4c3c(=O)n2Cc2ccccc2)cc1 [Example 5]
IC50: > 10000 nM

SMILES: O=c1c2c(nc(-c3ccc(F)cc3C3CC3)n1CCCc1nc3ccccc3o1)sc1c(O)cccc12 [Example 86]
IC50: < 100 nM

SMILES: COc1ccc(-c2nc3sc4c(O)cccc4c3c(=O)n2CCN2CCN(C)CC2)c(C2CC2)c1 [Example 18]
IC50: < 100 nM

Further lines, results first:

IC50: < 100 nM
SMILES: COc1ccc(-c2nc3sc4c(O)cccc4c3c(=O)n2C)c(C2CC2)c1 [Example 53]

IC50: < 100 nM
SMILES: COc1ccc(-c2nc3sc4c(O)cccc4c3c(=O)n2CCN(C)C)c(C2CC2)c1 [Example 25]

IC50: < 100 nM
SMILES: COc1ccc(-c2nc3sc4c(O)cccc4c3c(=O)n2Cc2cc(C)no2)c(C2CC2)c1 [Example 66]

IC50: < 100 nM
SMILES: COc1ccc(-c2nc3sc4c(O)cccc4c3c(=O)n2Cc2cncs2)c(C2CC2)c1 [Example 15]

IC50: < 100 nM
SMILES: C=CCn1c(-c2ccc(OC)cc2C2CC2)nc2sc3c(O)cccc3c2c1=O [Example 65]

IC50: < 100 nM
SMILES: COc1ccc(-c2nc3sc4c(O)cccc4c3c(=O)n2CCN(C)Cc2ccncc2)c(C2CC2)c1 [Example 26]

IC50: < 100 nM
SMILES: COc1ccc(-c2nc3sc4c(O)cccc4c3c(=O)n2CCNCc2cncs2)c(C2CC2)c1 [Example 32]

IC50: < 100 nM
SMILES: COc1ccc(-c2nc3sc4c(O)cccc4c3c(=O)n2CCNCc2cnccn2)c(C2CC2)c1 [Example 28]

IC50: 100 to 1000 nM
SMILES: COc1ccc(-c2nc3sc4c(O)cccc4c3c(=O)n2Cc2ccccc2)c(Br)c1 [Example 8]

IC50: < 100 nM
SMILES: COc1ccc(-c2nc3sc4c(O)cccc4c3c(=O)n2Cc2cnc(C)o2)c(C2CC2)c1 [Example 67]

IC50: > 10000 nM
SMILES: COc1ccc(-c2nc3sc4c(O)cccc4c3c(=O)n2C/C=C/CN(C)C)c(C2CC2)c1 [Example 55]

IC50: < 100 nM
SMILES: COc1ccc(-c2nc3sc4c(O)cccc4c3c(=O)n2C/C=C/C(=O)N(C)C)c(C2CC2)c1 [Example 42]

IC50: < 100 nM
SMILES: COc1ccc(-c2nc3sc4c(O)cccc4c3c(=O)n2CCNCc2cccnc2)c(C2CC2)c1 [Example 23]

IC50: 100 to 1000 nM
SMILES: CCc1ncc(Cn2c(-c3ccc(OC)cc3C3CC3)nc3sc4c(O)cccc4c3c2=O)s1 [Example 61]

IC50: 100 to 1000 nM
SMILES: COc1ccc(-c2nc3sc4c(O)cccc4c3c(=O)n2CCNS(=O)(=O)c2ccc(F)cc2)c(C2CC2)c1 [Example 50]

IC50: 100 to 1000 nM
SMILES: COc1ccc(-c2nc3sc4c(O)cccc4c3c(=O)n2CC2CC2)c(C2CC2)c1 [Example 59]

IC50: 100 to 1000 nM
SMILES: COc1ccc(-c2nc3sc4c(O)cccc4c3c(=O)n2CC(F)(F)F)c(C2CC2)c1 [Example 58]

IC50: 100 to 1000 nM
SMILES: COc1ccc(-c2nc3sc4c(O)cccc4c3c(=O)n2C/C=C/CSc2ccccc2)c(C2CC2)c1 [Example 52]

IC50: < 100 nM
SMILES: COc1ccc(-c2nc3sc4c(O)cccc4c3c(=O)n2Cc2cn[nH]c2)c(C2CC2)c1 [Example 14]
